According to patent US10370718B2, “Use of HLA genetic status to assess or select treatment of celiac disease” (ImmusanT, Inc., priority 2014, dated 2019):
Square brackets hold non-standard residues; d marks the D form. pGlu = O=C1CC[C@@H](C(=O)O)N1

Test system: circulating cytokines
Assay: Circulating cytokines/chemokines in plasma after dosing (MAGPIX multiplex platform)
Assay type: in vivo, human
Details: dose of 150 micrograms; same dose in both genotype groups
Procedure: 3 cohorts of subjects with HLA-DQ2.5+(heterozygous or homozygous) biopsy-proven Celiac disease on a gluten-free diet for at least 1 year were included in the study. The first cohort (Cohort 1) contained 12 subjects who were dosed with 150 mcg of a gluten peptide composition (an equimolar composition in sodium chloride 0.9% USP of 3 peptides: ELQPFPQPELPYPQPQ (SEQ ID NO: 9), EQPFPQPEQPFPWQP (SEQ ID NO: 10), and EPEQPIPEQPQPYPQQ (SEQ ID NO: 11), each peptide comprising an N-terminal pyroglutamate and C-terminal amidated amino acid) or a placebo (sodium chloride 0.9% USP) intradermally, twice a week for 8 weeks total. The second cohort (Cohort 2) contained 13 subjects who were dosed with 300 mcg of the gluten peptide composition or the placebo intradermally, twice a week for 8 weeks total. […] Both Cohorts 1 and 2 received an oral gluten challenge and were assessed for gamma-interferon (gIFN) release and then returned to baseline prior to starting the treatment regimen. […]
The progress of each subject before, during and after the trial was assessed using multiple tests including serology (tTG-IgA, DGP-IgG, DGP-IgA, and EMA-IgA), histology, and IFNg whole blood release assay, and cytokine/chemokines in plasma (measured by MAGPIX® multiplex platform). Plasma cytokines and chemokines were measured at several timepoints pre and post first and last dose. […]

**Q.** Which “levels of circulating cytokines in response to administration, HLA-DQ2.5 homozygous subjects compared to subjects with other genotypes” value does the source give for “gluten peptide composition: equimolar composition in sodium chloride 0.9% USP of 3 peptides (SEQ ID NO: 9, 10, 11), each with N-terminal pyroglutamate and C-terminal amidated amino acid (chain 1 [pGlu]LQPFPQPELPYPQPQ-NH2; chain 2 [pGlu]QPFPQPEQPFPWQP-NH2; chain 3 [pGlu]PEQPIPEQPQPYPQQ-NH2)” here?
**A.** generally increased levels of circulating cytokines
